From PMC10663924 (Saudi Pharmaceutical Journal : SPJ, 2023)

Assays:
human VEGFR-2 = human VEGFR-2 (Homo sapiens, UniProt P35968); assay: biochemical
IL-2 = assay: qRT-PCR of IL-2 in MCF7 cells; assay type: cell-based; conditions: treated MCF7 cells vs control
Human EGFR = Human EGFR (Homo sapiens, UniProt P00533); assay: In vitro multikinase assay
MCF7 cell lines = assay: cells; assay type: cell-based; conditions: Homo sapiens, MCF7, read-out: IC50 proliferation of MCF7 (abstract)
MCF7 cells [1] = assay: Annexin V / PI flow cytometry apoptosis analysis; assay type: cell-based; conditions: 30.95 µM
MCF7 cells [2] = assay: Scratch; assay type: cell-based
HepG2 cell lines = assay: cells; assay type: cell-based; conditions: Homo sapiens, HepG2, read-out: IC50 proliferation of HepG2 (abstract)
[3] = Determination of LD50 in mice; assay type: in vivo; conditions: male, BALB/c, mouse, in vivo, po
BALB/c male mice = assay: Determination of LD50 in mice; assay type: in vivo; conditions: mice, 1 and 3 gm/kg single dose orally, 24 h
Vero cell line = assay: MTT safety assay, Vero normal cells; assay type: cell-based; conditions: Chlorocebus sabaeus, read-out: IC50 against normal cell line (Vero)
TNF-α = assay: qRT-PCR of TNF-α in MCF7 cells; assay type: cell-based; conditions: treated MCF7 cells vs control
Liver function test = conditions: mice; for ALT level: control 25.2 ± 1.2; for AST level: control 29.1 ± 1.1
Human PDGFRβ = Human PDGFRβ (Homo sapiens, UniProt P09619); assay: In vitro multikinase assay
Sequence of Human PDGFRβ (P09619 33-1106): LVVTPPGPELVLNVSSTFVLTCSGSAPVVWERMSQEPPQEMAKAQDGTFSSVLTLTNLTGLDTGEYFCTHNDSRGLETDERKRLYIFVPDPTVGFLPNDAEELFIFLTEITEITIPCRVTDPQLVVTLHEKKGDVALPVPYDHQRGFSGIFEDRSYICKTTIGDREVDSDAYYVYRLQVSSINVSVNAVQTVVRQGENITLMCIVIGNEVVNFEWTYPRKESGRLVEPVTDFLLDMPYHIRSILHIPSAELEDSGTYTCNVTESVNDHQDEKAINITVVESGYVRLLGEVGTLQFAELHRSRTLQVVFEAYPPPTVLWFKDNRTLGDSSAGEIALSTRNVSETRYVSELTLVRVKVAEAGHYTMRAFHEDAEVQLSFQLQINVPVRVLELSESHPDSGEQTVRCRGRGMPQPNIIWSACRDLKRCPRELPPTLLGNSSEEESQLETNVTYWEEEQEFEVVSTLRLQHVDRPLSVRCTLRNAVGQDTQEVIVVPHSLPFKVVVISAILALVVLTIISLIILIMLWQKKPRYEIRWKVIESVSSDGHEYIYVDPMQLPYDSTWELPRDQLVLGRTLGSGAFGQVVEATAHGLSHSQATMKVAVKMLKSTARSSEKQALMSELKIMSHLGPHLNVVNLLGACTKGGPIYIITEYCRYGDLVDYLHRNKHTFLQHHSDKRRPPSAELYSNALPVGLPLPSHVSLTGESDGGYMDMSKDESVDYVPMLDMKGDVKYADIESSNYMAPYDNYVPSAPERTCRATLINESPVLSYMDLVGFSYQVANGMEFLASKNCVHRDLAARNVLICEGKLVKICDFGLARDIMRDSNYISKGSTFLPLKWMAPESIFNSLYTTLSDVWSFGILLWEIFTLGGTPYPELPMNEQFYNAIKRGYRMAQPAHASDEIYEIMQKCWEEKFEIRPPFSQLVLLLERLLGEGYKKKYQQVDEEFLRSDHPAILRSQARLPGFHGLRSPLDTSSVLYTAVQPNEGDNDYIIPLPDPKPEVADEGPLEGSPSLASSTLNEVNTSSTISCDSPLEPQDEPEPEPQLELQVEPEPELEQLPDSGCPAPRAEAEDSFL

[4] = 100 mg/kg oral single dose (group II)
[5] = 200 mg/kg oral single dose (group III)

Sequence of human VEGFR-2 (P35968 20-1356): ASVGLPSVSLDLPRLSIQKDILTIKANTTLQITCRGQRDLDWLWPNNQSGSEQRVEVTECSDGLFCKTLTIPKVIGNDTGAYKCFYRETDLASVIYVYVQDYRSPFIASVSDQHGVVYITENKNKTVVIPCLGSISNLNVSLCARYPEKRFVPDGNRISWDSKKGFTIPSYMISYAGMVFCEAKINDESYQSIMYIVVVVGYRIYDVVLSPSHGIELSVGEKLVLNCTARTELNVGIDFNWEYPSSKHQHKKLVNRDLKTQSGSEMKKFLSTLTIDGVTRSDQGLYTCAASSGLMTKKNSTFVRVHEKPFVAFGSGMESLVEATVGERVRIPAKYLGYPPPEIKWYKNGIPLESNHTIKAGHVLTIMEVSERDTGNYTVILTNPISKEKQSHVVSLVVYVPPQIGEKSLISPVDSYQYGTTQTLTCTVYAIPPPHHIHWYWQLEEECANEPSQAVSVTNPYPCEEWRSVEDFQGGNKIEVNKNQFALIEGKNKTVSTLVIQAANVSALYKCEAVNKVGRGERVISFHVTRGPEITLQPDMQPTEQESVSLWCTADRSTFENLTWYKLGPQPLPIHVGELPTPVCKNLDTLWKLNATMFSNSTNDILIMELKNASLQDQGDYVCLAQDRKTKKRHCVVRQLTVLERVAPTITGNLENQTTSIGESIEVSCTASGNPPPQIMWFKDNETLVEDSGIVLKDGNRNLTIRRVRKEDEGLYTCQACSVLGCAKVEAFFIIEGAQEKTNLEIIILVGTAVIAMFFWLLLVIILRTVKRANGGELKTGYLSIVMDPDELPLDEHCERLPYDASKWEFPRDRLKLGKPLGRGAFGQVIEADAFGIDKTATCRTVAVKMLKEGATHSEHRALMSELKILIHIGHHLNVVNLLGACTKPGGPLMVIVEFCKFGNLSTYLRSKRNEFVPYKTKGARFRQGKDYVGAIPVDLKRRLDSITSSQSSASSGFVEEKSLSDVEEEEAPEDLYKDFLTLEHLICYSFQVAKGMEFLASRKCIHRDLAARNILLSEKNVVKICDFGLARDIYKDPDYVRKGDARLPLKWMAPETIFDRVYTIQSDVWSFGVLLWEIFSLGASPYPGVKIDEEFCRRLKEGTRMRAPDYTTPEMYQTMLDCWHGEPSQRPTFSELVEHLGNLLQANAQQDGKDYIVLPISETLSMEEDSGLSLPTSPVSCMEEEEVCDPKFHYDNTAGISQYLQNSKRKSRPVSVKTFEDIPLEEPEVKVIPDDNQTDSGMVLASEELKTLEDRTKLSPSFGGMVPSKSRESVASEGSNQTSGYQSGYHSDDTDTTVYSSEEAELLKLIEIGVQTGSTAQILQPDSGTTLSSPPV
Sequence of Human EGFR (P00533 25-1210): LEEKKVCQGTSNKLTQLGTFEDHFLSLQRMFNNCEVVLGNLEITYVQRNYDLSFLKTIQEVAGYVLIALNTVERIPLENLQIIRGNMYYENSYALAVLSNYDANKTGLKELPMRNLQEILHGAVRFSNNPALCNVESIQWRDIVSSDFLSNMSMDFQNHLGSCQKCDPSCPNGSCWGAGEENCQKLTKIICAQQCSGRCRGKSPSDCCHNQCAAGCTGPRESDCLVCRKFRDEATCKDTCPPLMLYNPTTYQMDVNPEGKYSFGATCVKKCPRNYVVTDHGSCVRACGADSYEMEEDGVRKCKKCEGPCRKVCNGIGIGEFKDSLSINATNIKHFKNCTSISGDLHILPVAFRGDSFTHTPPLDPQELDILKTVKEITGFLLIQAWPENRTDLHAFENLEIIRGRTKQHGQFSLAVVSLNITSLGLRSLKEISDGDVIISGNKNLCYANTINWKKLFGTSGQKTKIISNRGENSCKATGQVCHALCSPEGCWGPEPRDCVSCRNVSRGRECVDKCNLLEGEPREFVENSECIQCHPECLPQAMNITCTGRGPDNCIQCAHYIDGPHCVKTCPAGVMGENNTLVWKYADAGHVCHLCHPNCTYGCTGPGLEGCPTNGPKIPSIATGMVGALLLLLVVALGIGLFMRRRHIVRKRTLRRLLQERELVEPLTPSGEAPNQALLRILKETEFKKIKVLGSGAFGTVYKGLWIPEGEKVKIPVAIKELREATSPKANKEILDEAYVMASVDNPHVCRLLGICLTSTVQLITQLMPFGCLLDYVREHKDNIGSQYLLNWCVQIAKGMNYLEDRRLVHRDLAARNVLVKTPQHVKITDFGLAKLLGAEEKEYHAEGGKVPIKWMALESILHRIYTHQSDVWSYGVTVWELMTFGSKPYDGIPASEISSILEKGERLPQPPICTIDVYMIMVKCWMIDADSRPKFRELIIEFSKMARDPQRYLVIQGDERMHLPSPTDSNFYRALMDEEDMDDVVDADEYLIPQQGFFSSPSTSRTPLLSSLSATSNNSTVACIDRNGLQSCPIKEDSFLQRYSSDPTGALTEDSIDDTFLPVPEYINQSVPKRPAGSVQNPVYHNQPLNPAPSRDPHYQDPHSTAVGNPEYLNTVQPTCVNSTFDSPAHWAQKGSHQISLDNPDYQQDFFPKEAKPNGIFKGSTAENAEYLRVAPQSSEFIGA

**Q.** For CC(=NNC(=O)c1cccc(C)c1)c1ccc(NC(=O)Cn2c(=O)c3c(ncn3C)n(C)c2=O)cc1 [T-1-MBHEPA, 2-(3,7-dimethyl-2,6-dioxo-2,3,6,7-tetrahydro-1H-purin-1-yl)-N-(4-(1-(2-(3-methylbenzoyl)hydrazono)ethyl)phenyl)acetamide], which IC50 (human VEGFR-2) is on record?
**A.** Its IC50 is 121 ± 51 nM.

**Q.** And the “Reduction of IL-2 production” value (IL-2)?
**A.** Its value is 58%.

**Q.** And the IC50 (Human EGFR)?
**A.** The IC50 was 355 ± 14 nM.

**Q.** What about the IC50 (MCF7 cell lines) of the same compound?
**A.** The IC50 was 4850 nM.

**Q.** What about the “Apoptosis Early %” value (MCF7 cells [1]) of the same compound?
**A.** Its value is 7.22%.

**Q.** And the “Apoptosis Late %” value (MCF7 cells [1])?
**A.** Its value is 2.72%.

**Q.** And the “Apoptosis Total %” value (MCF7 cells [1])?
**A.** The value was 21.35%.

**Q.** And the Necrosis % (MCF7 cells [1])?
**A.** The Necrosis % was 11.41%.

**Q.** What about the “Scratch area at 48 h” value (MCF7 cells [2]; MCF7) of the same compound?
**A.** The value was 892.6667.

**Q.** What about the “Scratch width at 48 h” value (MCF7 cells [2]; MCF7) of the same compound?
**A.** Its value is 891.751.

**Q.** And the Area difference % (MCF7 cells [2]; MCF7, 48 h)?
**A.** Its Area difference % is 71.333%.

**Q.** What about the RM um (MCF7 cells [2]; MCF7, 48 h) of the same compound?
**A.** Its RM um is 1.485 um.

**Q.** And the “Wound closure % um^2” value (MCF7 cells [2]; MCF7, 48 h)?
**A.** The value was 7.399 % um^2.

**Q.** What about the “Decrease of scratch width (healing and migration) within 48 h” value (MCF7 cells [2]; MCF7, 48 h, untreated 65.9 %) of the same compound?
**A.** Its value is 7.4%.

**Q.** And the IC50 (HepG2 cell lines)?
**A.** The IC50 was 4610 nM.

**Q.** And the LD50 at 24 h [3]?
**A.** The LD50 at 24 h was 5000 mg/kg.

**Q.** And the “Tolerability of the other doses” value (BALB/c male mice)?
**A.** Its value is “well tolerated”.

**Q.** And the IC50 (Vero cell line)?
**A.** Its IC50 is 80000 nM.

**Q.** And the “Reduction of TNF-α production” value (TNF-α)?
**A.** The value was 33%.

**Q.** What about the ALT level (Liver function test; [4]) of the same compound?
**A.** The ALT level was 25.3 ± 2.1.

**Q.** And the AST level (Liver function test; [4])?
**A.** The AST level was 29.2 ± 1.1.

**Q.** What about the ALT level (Liver function test; [5]) of the same compound?
**A.** Its ALT level is 28.9 ± 2.1.

**Q.** And the AST level (Liver function test; [5])?
**A.** The AST level was 31.7 ± 1.8.

**Q.** And the IC50 (Human PDGFRβ)?
**A.** The IC50 was 179 ± 9 nM.
